Laboratory results as given in patent US20260373248A1, “DEGRADABLE PEPTOIDS” (Medici Therapeutics, Inc., priority 2023, published 2026).
Starred links: 1 amine or outer side, 2 acyl side, 3 side chain; linkers in the order of their positions; H or OH if unused. Non-standard residues stand in square brackets, D forms with d. Residues, ends and D or L forms follow the SMILES beside them. *: point of attachment. Gly(N-(3-decanoyloxypropyl)) = CCCCCCCCCC(=O)OCCCNCC(=O)O; N(3-lauroyloxypropyl)Gly = CCCCCCCCCCCC(=O)OCCCNCC(=O)O; N(2-decanoyloxyethyl)Gly = CCCCCCCCCC(=O)OCCNCC(=O)O; Gly(N-(CH2)3O-octanoyl) = CCCCCCCC(=O)OCCCNCC(=O)O; Gly(N-3-morpholinopropyl) = O=C(O)CNCCCN1CCOCC1; N(2-ethylhexyl)Gly = CCCCC(CC)CNCC(=O)O; X2 = CCCCCCC(CCCC)CN(CC(=O)[*:2])[*:1]; N(CH(CH2OH)2)Gly = O=C(O)CNC(CO)CO; N(octyl)Gly = CCCCCCCCNCC(=O)O; NHexGly = CCCCCCNCC(=O)O; For = O=C*

What was measured:
hEPO = assay: Quantification of hEPO in serum after IV injection of mRNA (Human EPO ELISA); assay type: in vivo; conditions: Balb/c mice, 2.5 μg mRNA IV, serum after 6 hours
Outline: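 Balb/c mice received 2.5 μg mRNA encoding human EPO by IV injection; serum was collected after 6 hours. hEPO was measured by sandwich ELISA (biotin-conjugate, streptavidin-HRP, TMB, A450) against kit standards (mIU/mL) and an external standard (ng/mL), with values interpolated and corrected for dilution.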

[1] = Delivery vehicle size and polydispersity by dynamic light scattering; assay type: physicochemical
Outline: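 Dynamic light scattering in PBS gave size and polydispersity of peptoid LNPs. These were dialyzed overnight at 4 °C into tris-sucrose buffer pH 7.4 after microfluidic 1:3 volume mixing of mRNA in pH 5.0 citrate with ethanol lipids (peptoid:DSPC:cholesterol:DMG-PEG2000 20:1.79:7.16:1.84 w/w).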

mRNA = mRNA encapsulation (modified Quant-iT RiboGreen assay); assay type: physicochemical; conditions: for mean percent encapsulation of RNA: RiboGreen, without vs with Triton X-100; for % Encapsulation: mRNA
Outline: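 Encapsulated fraction was calculated by comparing RiboGreen signal (excitation 485 nm, emission 530 nm) of intact particles with that of particles lysed by a 10-min Triton X-100 treatment. Total mRNA concentration was taken from the lysed samples.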

luciferase = assay: Luciferase expression after local (intramuscular or subcutaneous) administration of mRNA; assay type: in vivo; conditions: mRNA 0.01 mpk, 6 hours; for IM Flux: intramuscular; for SC Flux: subcutaneous
Outline: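 Bioluminescence read 6 hours after fLuc mRNA dosing (peptoid Nutshells; 0.01 mpk S.C. or I.M., 0.1 mpk intratumoral) in female Balb/c mice aged 6-8 weeks. D-luciferin injected IP, whole-body imaging after 10 minutes, then organ imaging; total photon flux per region of interest.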

firefly luciferase = assay: In vivo firefly luciferase expression after intravenous injection of fLuc mRNA delivery vehicles (IVIS imaging); set-up: species or system female Balb/c mice; conditions: for Total Flux (luciferase expression): fLuc mRNA, intravenous, Balb/c mice; for Total Flux: mice, 2.5 ug fLuc mRNA intravenously, 6 hours post-injection
Outline: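 Read-out is total photon flux per region of interest, from whole-body IVIS images taken 10 minutes after IP D-luciferin (30 mg/mL, 10 μL/g) and from excised organs. Female Balb/c mice aged 6-8 weeks received 2.5 ug fLuc mRNA Nutshells intravenously 6 hours before imaging.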

[2] = Peptoid quantity remaining in liver by HPLC-TOF mass spectrometry; assay type: in vivo; conditions: liver homogenate
Outline: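 Whole liver weighed; 20 mg tissue bead-homogenized in IPA/MeOH (8/2) with internal standard, centrifuged, supernatant run on BEH C8 HPLC-TOF MS. Peptoid concentration derived from linear calibration curve (0.2-50 μg/g) prepared in spiked untreated liver.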

[3] = DLS in PBS, peptoid:DSPC:Cholesterol:DMG-PEG2000 weight ratio 20:1.79:7.16:1.84, mRNA

Compound | hEPO (hEPO) [ng/mL] | PDI [1, 3] | Particle Size [1, 3] [nm] | mean percent encapsulation of RNA (mRNA) [%] | IM Flux (luciferase) [p/s] | SC Flux (luciferase) [p/s] | Total Flux (firefly luciferase) [p/s] | % of injected dose remaining in liver [2] [%] | other results
CCCCCCCCCC(=O)OCCN(CC(=O)N(CCOC(=O)CCCCCCCCC)CC(=O)N(CC(=O)N(CCOC(=O)CCCCCCCCC)CC(=O)N(CCOC(=O)CCCCCCCCC)CC(=O)N(CC(N)=O)CC(CC)CCCC)CC(CC)CCCC)C(=O)CN(C=O)CCCN1CCOCC1 (centres unmarked) [Compound 76] (For-[Gly(N-3-morpholinopropyl)][N(2-decanoyloxyethyl)Gly][N(2-decanoyloxyethyl)Gly][N(2-ethylhexyl)Gly][N(2-decanoyloxyethyl)Gly][N(2-decanoyloxyethyl)Gly][N(2-ethylhexyl)Gly]-NH2) | 2140 | 0.095 | 75.4 | 56.4 | 1.70E+08 | 8.95E+07 | 5.54E+09 | 7.34 | Particle Size ([1]; formulation recipe D22): 75.4 nm; Particle Size ([1]; formulation recipe R1): 66.0 nm; Particle Size ([1]; formulation recipe R5): 67.2 nm; Particle Size ([1]; formulation recipe R6): 74.4 nm; Particle Size ([1]; formulation recipe R7): 75.3 nm; % Encapsulation (mRNA; formulation recipe D22): 56.4%; % Encapsulation (mRNA; formulation recipe R1): 82.7%; % Encapsulation (mRNA; formulation recipe R5): 88.1%; % Encapsulation (mRNA; formulation recipe R6): 87.6%; % Encapsulation (mRNA; formulation recipe R7): 79.9%; Total Flux (luciferase expression) (firefly luciferase; formulation recipe D22): 5.54E+09 p/s; Total Flux (luciferase expression) (firefly luciferase; formulation recipe R1): 5.94E+08 p/s; Total Flux (luciferase expression) (firefly luciferase; formulation recipe R5): 1.00E+09 p/s; Total Flux (luciferase expression) (firefly luciferase; formulation recipe R6): 2.28E+09 p/s; Total Flux (luciferase expression) (firefly luciferase; formulation recipe R7): 4.00E+09 p/s
CCCCCCCC(=O)OCCCN(CC(=O)N(CC(=O)N(CC(=O)N(CCCOC(=O)CCCCCCC)CC(=O)N(CC(N)=O)CC(CCCC)CCCCCC)CC(CC)CCCC)CC(CCCC)CCCCCC)C(=O)CN(CC(CC)CCCC)C(=O)CNC(CO)CO (centres unmarked) [Compound 104] (H-[N(CH(CH2OH)2)Gly][N(2-ethylhexyl)Gly][Gly(N-(CH2)3O-octanoyl)][X2][N(2-ethylhexyl)Gly][Gly(N-(CH2)3O-octanoyl)][X2]-NH2) | 693 | 0.092 | 78.8 | 93.6 | 1.34E+08 | 1.93E+08 | 4.50E+09 | 7.45 | 
CCCCCCCCCC(=O)OCCCN(C=O)CC(=O)N(CCCOC(=O)CCCCCCCCC)CC(=O)N(CC(=O)N(CCCN1CCOCC1)CC(=O)N(CCCOC(=O)CCCCCCCCC)CC(=O)N(CCCOC(=O)CCCCCCCCC)CC(=O)N(CC(N)=O)CC(CC)CCCC)CC(CC)CCCC (centres unmarked) [Compound 112] (For-[Gly(N-(3-decanoyloxypropyl))][Gly(N-(3-decanoyloxypropyl))][N(2-ethylhexyl)Gly][Gly(N-3-morpholinopropyl)][Gly(N-(3-decanoyloxypropyl))][Gly(N-(3-decanoyloxypropyl))][N(2-ethylhexyl)Gly]-NH2) | 345 | 0.138 | 95.4 | 39.2 | 1.80E+08 | 2.33E+08 | 1.13E+09 | 0.19 | Particle Size ([1]; formulation recipe R5): 87.6 nm; % Encapsulation (mRNA; formulation recipe R5): 71.6%; Total Flux (luciferase expression) (firefly luciferase; formulation recipe R5): 2.67E+08 p/s
CCCCCCCCCC(=O)OCCCN(CC(N)=O)C(=O)CN(CCCOC(=O)CCCCCCCCC)C(=O)CN(CC(CC)CCCC)C(=O)CN(CCCOC(=O)CCCCCCCCC)C(=O)CN(CCCOC(=O)CCCCCCCCC)C(=O)CN(CC(CC)CCCC)C(=O)CNC(CO)CO (centres unmarked) [Compound 102] (H-[N(CH(CH2OH)2)Gly][N(2-ethylhexyl)Gly][Gly(N-(3-decanoyloxypropyl))][Gly(N-(3-decanoyloxypropyl))][N(2-ethylhexyl)Gly][Gly(N-(3-decanoyloxypropyl))][Gly(N-(3-decanoyloxypropyl))]-NH2) | 207 | 0.123 | 97.8 | 47.1 | 2.12E+08 | 1.76E+08 | 1.90E+09 | 0.86 | 
CCCCCCCCCC(=O)OCCCN(CC(=O)N(CC(N)=O)CC(CC)CCCC)C(=O)CN(CCCCCCCC)C(=O)CN(CC(CC)CCCC)C(=O)CN(CCCOC(=O)CCCCCCCCC)C(=O)CN(CCCCCCCC)C(=O)CN(C=O)CCCN1CCOCC1 (centres unmarked) [Compound 110] (For-[Gly(N-3-morpholinopropyl)][N(octyl)Gly][Gly(N-(3-decanoyloxypropyl))][N(2-ethylhexyl)Gly][N(octyl)Gly][Gly(N-(3-decanoyloxypropyl))][N(2-ethylhexyl)Gly]-NH2) | 333 | 0.088 | 102.9 | 50.5 | 1.43E+08 | 2.34E+08 | 2.54E+09 | 5.52 | 
CCCCCCCCCCCC(=O)OCCCN(CC(=O)N(CC(N)=O)CC(CC)CCCC)C(=O)CN(CCCCCC)C(=O)CN(CC(CC)CCCC)C(=O)CN(CCCOC(=O)CCCCCCCCCCC)C(=O)CN(CCCCCC)C(=O)CNC(CO)CO (centres unmarked) [Compound 54] (H-[N(CH(CH2OH)2)Gly][NHexGly][N(3-lauroyloxypropyl)Gly][N(2-ethylhexyl)Gly][NHexGly][N(3-lauroyloxypropyl)Gly][N(2-ethylhexyl)Gly]-NH2) | 37.4 | 0.141 | 126.1 | 33.5 | 1.52E+07 | 2.18E+07 | 3.53E+08 | 8.64 | 
CCCCCCCCCC(=O)OCCCN(CC(N)=O)C(=O)CN(CC(CC)CCCC)C(=O)CN(CCCOC(=O)CCCCCCCCC)C(=O)CN(CCCOC(=O)CCCCCCCCC)C(=O)CN(CC(CC)CCCC)C(=O)CN(CCCOC(=O)CCCCCCCCC)C(=O)CNC(CO)CO (centres unmarked) [Compound 53] (H-[N(CH(CH2OH)2)Gly][Gly(N-(3-decanoyloxypropyl))][N(2-ethylhexyl)Gly][Gly(N-(3-decanoyloxypropyl))][Gly(N-(3-decanoyloxypropyl))][N(2-ethylhexyl)Gly][Gly(N-(3-decanoyloxypropyl))]-NH2) | 71.6 | 0.153 | 88.5 | 36.0 | 5.34E+08 | 2.78E+08 | 4.46E+08 | 0.13 | 
